# From patent publication US11498899B2, “Nitrone herbicides” (FMC Corporation, priority 2016, dated 2022)
# Columns and labels:
# [1] = tested on: barnyardgrass (Echinochloa crus-galli); experiment: Test B flooded paddy test, visual rating 0-100; settings: Flood, 250 g ai/ha, applied to paddy water, rated after 13 to 15 days
# [2] = tested on: foxtail, green (green foxtail, Setaria viridis); experiment: Test A postemergence, visual injury rating 0-100; assay type: in vivo; settings: 0 to 100 scale
# [3] = tested on: ragweed (common ragweed, Ambrosia elatior); experiment: Test A postemergence, visual injury rating 0-100; assay type: in vivo; settings: 0 to 100 scale
# [4] = tested on: pigweed (Amaranthus retroflexus); experiment: Test A postemergence, visual injury rating 0-100; assay type: in vivo; settings: 0 to 100 scale
# [5] = tested on: kochia (Kochia scoparia); experiment: Test A postemergence, visual injury rating 0-100; assay type: in vivo; settings: 0 to 100 scale
# [6] = tested on: barnyardgrass (Echinochloa crus-galli); experiment: Test A postemergence, visual injury rating 0-100; assay type: in vivo; settings: 0 to 100 scale
# [7] = tested on: galium (catchweed bedstraw, Galium aparine); experiment: Test A postemergence, visual injury rating 0-100; assay type: in vivo; settings: 0 to 100 scale
# [8] = tested on: blackgrass (Alopecurus myosuroides); experiment: Test A postemergence, visual injury rating 0-100; assay type: in vivo; settings: 0 to 100 scale
# [9] = tested on: wheat (Triticum aestivum); experiment: Test A postemergence, visual injury rating 0-100; assay type: in vivo; settings: 0 to 100 scale
# [10] = tested on: ryegrass, Italian (Italian ryegrass, Lolium multiflorum); experiment: Test A postemergence, visual injury rating 0-100; assay type: in vivo; settings: 0 to 100 scale
# [11] = tested on: corn (Zea mays); experiment: Test A postemergence, visual injury rating 0-100; assay type: in vivo; settings: 0 to 100 scale
# [12] = tested on: ducksalad (Heteranthera limosa); experiment: Test B flooded paddy test, visual rating 0-100; settings: Flood, 250 g ai/ha, applied to paddy water, rated after 13 to 15 days
# [13] = tested on: foxtail, green (green foxtail, Setaria viridis); experiment: Test A preemergence, visual injury rating 0-100; assay type: in vivo
# [14] = tested on: ragweed (common ragweed, Ambrosia elatior); experiment: Test A preemergence, visual injury rating 0-100; assay type: in vivo
# [15] = tested on: pigweed (Amaranthus retroflexus); experiment: Test A preemergence, visual injury rating 0-100; assay type: in vivo
# [16] = tested on: kochia (Kochia scoparia); experiment: Test A preemergence, visual injury rating 0-100; assay type: in vivo
# [17] = tested on: ryegrass, Italian (Italian ryegrass, Lolium multiflorum); experiment: Test A preemergence, visual injury rating 0-100; assay type: in vivo
# [18] = tested on: barnyardgrass (Echinochloa crus-galli); experiment: Test A preemergence, visual injury rating 0-100 (0 no effect, 100 complete control); assay type: in vivo; settings: for Barnyardgrass plant response rating (0 to 100 scale): 125 g ai/ha
# [19] = tested on: rice (Oryza sativa); experiment: Test B flooded paddy test, visual rating 0-100 (0 no effect, 100 complete control); settings: Flood, 250 g ai/ha, applied to paddy water, rated after 13 to 15 days
# [20] = 31 g ai/ha, 0 to 100 scale (0 no effect, 100 complete control), approx. 10 days
structure (smiles),measurement,setting,value
CC1=[N+]([O-])C(C(=O)Nc2cccc(F)n2)C(c2ccc(C(F)(F)F)cc2)C1 (racemic) [Compound 47],Barnyardgrass plant response rating (0 to 100 scale),[1],40
same,"Foxtail, Green plant response rating",[2]; 125 g ai/ha,50
same,"Foxtail, Green plant response rating",[2]; 500 g ai/ha,90
same,Ragweed plant response rating,[3]; 125 g ai/ha,0
same,Ragweed plant response rating,[3]; 500 g ai/ha,40
same,Pigweed plant response rating,[4]; 125 g ai/ha,0
same,Pigweed plant response rating,[4]; 500 g ai/ha,20
same,Kochia plant response rating,[5]; 125 g ai/ha,0
same,Kochia plant response rating,[5]; 500 g ai/ha,0
same,Barnyardgrass plant response rating,[6]; 125 g ai/ha,50
same,Barnyardgrass plant response rating,[6]; 500 g ai/ha,90
same,Galium plant response rating,[7]; 125 g ai/ha,50
same,Galium plant response rating,[7]; 500 g ai/ha,30
same,Blackgrass plant response rating,[8]; 125 g ai/ha,0
same,Blackgrass plant response rating,[8]; 500 g ai/ha,0
same,Wheat plant response rating,[9]; 125 g ai/ha,0
same,Wheat plant response rating,[9]; 500 g ai/ha,0
same,"Ryegrass, Italian plant response rating",[10]; 125 g ai/ha,0
same,"Ryegrass, Italian plant response rating",[10]; 500 g ai/ha,50
same,Corn plant response rating,[11]; 125 g ai/ha,0
same,Corn plant response rating,[11]; 500 g ai/ha,20
same,Ducksalad plant response rating (0 to 100 scale),[12],75
same,"Foxtail, Green plant response rating (0 to 100 scale)",[13]; 125 g ai/ha,90
same,"Foxtail, Green plant response rating (0 to 100 scale)",[13]; 500 g ai/ha,100
same,Ragweed plant response rating (0 to 100 scale),[14]; 125 g ai/ha,90
same,Ragweed plant response rating (0 to 100 scale),[14]; 500 g ai/ha,100
same,Pigweed plant response rating (0 to 100 scale),[15]; 125 g ai/ha,80
same,Pigweed plant response rating (0 to 100 scale),[15]; 500 g ai/ha,100
same,Kochia plant response rating (0 to 100 scale),[16]; 125 g ai/ha,40
same,Kochia plant response rating (0 to 100 scale),[16]; 500 g ai/ha,90
same,"Ryegrass, Italian plant response rating (0 to 100 scale)",[17]; 125 g ai/ha,0
same,"Ryegrass, Italian plant response rating (0 to 100 scale)",[17]; 500 g ai/ha,20
same,Barnyardgrass plant response rating (0 to 100 scale),[18],80
same,Barnyardgrass plant response rating,"[18]; 500 g ai/ha, 0 to 100 scale",100
same,Rice plant response rating (0 to 100 scale),[19],0
"CC1=[N+]([O-])[C@@H](C(=O)Nc2ccccc2F)[C@H](c2ccc(C(F)(F)F)cc2)C1 (relative stereo) [Compound 26, trans-N-(2-fluorophenyl)-3,4-dihydro-5-methyl-3-[4-(trifluoromethyl)phenyl]-2H-pyrrole-2-carboxamide 1-oxide]",Barnyardgrass plant response rating (0 to 100 scale),[1],60
same,"Foxtail, Green plant response rating",[2]; 125 g ai/ha,50
same,"Foxtail, Green plant response rating",[2]; 500 g ai/ha,90
same,Ragweed plant response rating,[3]; 125 g ai/ha,20
same,Ragweed plant response rating,[3]; 500 g ai/ha,60
same,Pigweed plant response rating,[4]; 125 g ai/ha,30
same,Pigweed plant response rating,[4]; 500 g ai/ha,80
same,Kochia plant response rating,[5]; 125 g ai/ha,0
same,Kochia plant response rating,[5]; 500 g ai/ha,10
same,Barnyardgrass plant response rating,[6]; 125 g ai/ha,60
same,Barnyardgrass plant response rating,[6]; 500 g ai/ha,90
same,Galium plant response rating,[7]; 125 g ai/ha,70
same,Galium plant response rating,[7]; 500 g ai/ha,80
same,Blackgrass plant response rating,[8]; 125 g ai/ha,20
same,Blackgrass plant response rating,[8]; 500 g ai/ha,60
same,Wheat plant response rating,[9]; 125 g ai/ha,0
same,Wheat plant response rating,[9]; 500 g ai/ha,10
same,"Ryegrass, Italian plant response rating",[10]; 125 g ai/ha,0
same,"Ryegrass, Italian plant response rating",[10]; 500 g ai/ha,20
same,Corn plant response rating,[11]; 125 g ai/ha,0
same,Corn plant response rating,[11]; 500 g ai/ha,0
same,Ducksalad plant response rating (0 to 100 scale),[12],100
same,"Foxtail, Green plant response rating (0 to 100 scale)",[13]; 125 g ai/ha,100
same,"Foxtail, Green plant response rating","[13]; 500 g ai/ha, 0 to 100 scale",100
same,Ragweed plant response rating (0 to 100 scale),[14]; 125 g ai/ha,80
same,Ragweed plant response rating,"[14]; 500 g ai/ha, 0 to 100 scale",90
same,Pigweed plant response rating (0 to 100 scale),[15]; 125 g ai/ha,70
same,Pigweed plant response rating,"[15]; 500 g ai/ha, 0 to 100 scale",90
same,Kochia plant response rating (0 to 100 scale),[16]; 125 g ai/ha,50
same,Kochia plant response rating,"[16]; 500 g ai/ha, 0 to 100 scale",90
same,"Ryegrass, Italian plant response rating (0 to 100 scale)",[17]; 125 g ai/ha,20
same,"Ryegrass, Italian plant response rating","[17]; 500 g ai/ha, 0 to 100 scale",70
same,Barnyardgrass plant response rating (0 to 100 scale),[18],80
same,Barnyardgrass plant response rating,"[18]; 500 g ai/ha, 0 to 100 scale",100
same,Rice plant response rating (0 to 100 scale),[19],0
CC1=[N+]([O-])[C@@H](C(=O)Nc2cccc(F)c2F)[C@H](c2ccc(F)c(F)c2)C1 [Compound 39],Barnyardgrass plant response rating (0 to 100 scale),[1],90
same,"Foxtail, Green plant response rating",[2]; 31 g ai/ha,10
same,"Foxtail, Green plant response rating",[2]; 125 g ai/ha,70
same,Ragweed plant response rating,[3]; 31 g ai/ha,0
same,Ragweed plant response rating,[3]; 125 g ai/ha,0
same,Pigweed plant response rating,[4]; 31 g ai/ha,0
same,Pigweed plant response rating,[4]; 125 g ai/ha,0
same,Kochia plant response rating,[5]; 31 g ai/ha,0
same,Kochia plant response rating,[5]; 125 g ai/ha,0
same,Barnyardgrass plant response rating,[6]; 31 g ai/ha,0
same,Barnyardgrass plant response rating,[6]; 125 g ai/ha,60
same,Galium plant response rating,[7]; 31 g ai/ha,0
same,Galium plant response rating,[7]; 125 g ai/ha,10
same,Blackgrass plant response rating,[8]; 31 g ai/ha,0
same,Blackgrass plant response rating,[8]; 125 g ai/ha,50
same,Wheat plant response rating,[9]; 31 g ai/ha,0
same,Wheat plant response rating,[9]; 125 g ai/ha,50
same,"Ryegrass, Italian plant response rating",[10]; 31 g ai/ha,0
same,"Ryegrass, Italian plant response rating",[10]; 125 g ai/ha,10
same,Corn plant response rating,[11]; 31 g ai/ha,0
same,Corn plant response rating,[11]; 125 g ai/ha,10
same,Ducksalad plant response rating (0 to 100 scale),[12],100
same,"Foxtail, Green plant response rating",[13]; [20],100
same,"Foxtail, Green plant response rating (0 to 100 scale)",[13]; 125 g ai/ha,100
same,Ragweed plant response rating,[14]; [20],0
same,Ragweed plant response rating (0 to 100 scale),[14]; 125 g ai/ha,100
same,Pigweed plant response rating,[15]; [20],0
same,Pigweed plant response rating (0 to 100 scale),[15]; 125 g ai/ha,30
same,Kochia plant response rating,[16]; [20],0
same,Kochia plant response rating (0 to 100 scale),[16]; 125 g ai/ha,30
same,"Ryegrass, Italian plant response rating",[17]; [20],20
same,"Ryegrass, Italian plant response rating (0 to 100 scale)",[17]; 125 g ai/ha,10
same,Barnyardgrass plant response rating,[18]; [20],100
same,Barnyardgrass plant response rating (0 to 100 scale),[18],100
same,Rice plant response rating (0 to 100 scale),[19],10
"CC1=[N+]([O-])[C@H](C(=O)Nc2cccc(F)c2F)[C@@H](c2ccc(Cl)cc2)C1 [Compound 40, (2S,3R)-3-(4-chlorophenyl)-N-(2,3-difluorophenyl)-3,4-dihydro-5-methyl-2H-pyrrole-2-carboxamide 1-oxide]",Barnyardgrass plant response rating (0 to 100 scale),[1],80
same,"Foxtail, Green plant response rating",[2]; 31 g ai/ha,40
same,"Foxtail, Green plant response rating",[2]; 125 g ai/ha,80
same,Ragweed plant response rating,[3]; 31 g ai/ha,0
same,Ragweed plant response rating,[3]; 125 g ai/ha,0
same,Pigweed plant response rating,[4]; 31 g ai/ha,0
same,Pigweed plant response rating,[4]; 125 g ai/ha,0
same,Kochia plant response rating,[5]; 31 g ai/ha,0
same,Kochia plant response rating,[5]; 125 g ai/ha,0
same,Barnyardgrass plant response rating,[6]; 31 g ai/ha,80
same,Barnyardgrass plant response rating,[6]; 125 g ai/ha,90
same,Galium plant response rating,[7]; 31 g ai/ha,10
same,Galium plant response rating,[7]; 125 g ai/ha,60
same,Blackgrass plant response rating,[8]; 31 g ai/ha,0
same,Blackgrass plant response rating,[8]; 125 g ai/ha,60
same,Wheat plant response rating,[9]; 31 g ai/ha,0
same,Wheat plant response rating,[9]; 125 g ai/ha,10
same,"Ryegrass, Italian plant response rating",[10]; 31 g ai/ha,0
same,"Ryegrass, Italian plant response rating",[10]; 125 g ai/ha,20
same,Corn plant response rating,[11]; 31 g ai/ha,20
same,Corn plant response rating,[11]; 125 g ai/ha,30
same,Ducksalad plant response rating (0 to 100 scale),[12],95
same,"Foxtail, Green plant response rating",[13]; [20],100
same,"Foxtail, Green plant response rating (0 to 100 scale)",[13]; 125 g ai/ha,100
same,Ragweed plant response rating,[14]; [20],20
same,Ragweed plant response rating (0 to 100 scale),[14]; 125 g ai/ha,80
same,Pigweed plant response rating,[15]; [20],0
same,Pigweed plant response rating (0 to 100 scale),[15]; 125 g ai/ha,80
same,Kochia plant response rating,[16]; [20],0
same,Kochia plant response rating (0 to 100 scale),[16]; 125 g ai/ha,80
same,"Ryegrass, Italian plant response rating",[17]; [20],0
same,"Ryegrass, Italian plant response rating (0 to 100 scale)",[17]; 125 g ai/ha,10
same,Barnyardgrass plant response rating,[18]; [20],100
same,Barnyardgrass plant response rating (0 to 100 scale),[18],100
same,Rice plant response rating (0 to 100 scale),[19],25
